We go through seven molecules from article PMC5830749, “Bifunctional fluorescent probes for detection of amyloid aggregates and reactive oxygen species” (Royal Society Open Science, 2018).

The structures appear in SMILES notation. Where a name gives a salt, the structure may show the parent alone. Read-outs that look alike come from different tables or passages of the source.

Data set [1] is described as follows: Bulk photophysical properties of free dyes in PBS. Conditions: free dye; for Stokes shift (λem − λabs) / brightness (ε × ΦFl) / maximum absorption wavelength (λabs) / maximum emission wavelength (λem) / molar extinction coefficient ε: PBS pH 7.4; for fluorescence quantum yield ΦFl: PBS pH 7.4, relative to a standard.
Experimental: Several photophysical quantities were determined from ensemble absorption and emission data, using techniques previously described [38]. These included absorption maxima (λAbs), emission maxima (λEm) Stokes shift, molar extinction coefficient (ε) and fluorescence quantum yield (ΦFl).
Data set [2] is described as follows: LCMS analysis of the reaction of the dyes with H2O2 in PBS. It counts as physicochemical. Conditions: for dye molecules converted into the phenol: 1 hour incubation with 100 µM H2O2, PBS. How it is done:
Next, the change in bulk fluorescence emission was assessed upon addition of H2O2 at a concentration realistic for cellular oxidative stress (100 µM). […] Furthermore, the kinetics could be followed, with all fluorescence traces increasing at varying rates in a linear regime over a 5 h period (figure 2c). As the oxidation reaction is predominantly irreversible, these sensors record the total ROS exposure to a system, rather than the equilibrium value. […] These measurements confirmed that the change in fluorescence intensity arose from the conversion of the boronic ester into the hydroxyl functionality. By contrast, no significant change in the chemical composition of the dye solutions occurred over the same time frame without addition of H2O2 (electronic supplementary material, figure S4).
LCMS analysis of the reaction of the dyes with H2O2 was performed using a Waters Acquity H-class UPLC coupled with a single quadrupole Waters SQD2. ACQUITY UPLC CSH C18 Column, 130 Å, 1.7 µm, 2.1 mm × 50 mm was used as the UPLC column. The conditions of the UPLC method are as follows:
Solvent A: Water +0.1% Formic acid; Solvent B: Acetonitrile +0.1% Formic acid; Gradient of 0-4 minutes 5% - 100%B + 1 minute 100% B with re-equilibration time of 2 minutes. Flow rate: 0.6 ml/min; Column temperature of 40 °C; Injection volume of […]. The signal was monitored at 254 nm.
Samples were prepared by diluting the stock solutions of the BE and mBE compounds (prepared as previously described) into PBS (pH 7.4) to a concentration of 30 µM. The diluted dye solutions were analysed via LCMS directly after dilution (t = 0 hour) as well as 1 hour after dilution (t = 1 hour) (Supplementary Table 1). To proof the oxidative cleavage of the boronic esters to a phenol triggered by H2O2, the diluted dye solutions were exposed to 100 µM H2O2 and analysed via LCMS after 1 hour of incubation (Supplementary Table 1).

The nature of data set [3]: Bulk fluorescence response of dyes to H2O2. Conditions: for increase in bulk fluorescence upon addition of H2O2: 100 µM H2O2, dye 5 µM, PBS pH 7.4, relative to free dye; for gradient of fluorescence intensity versus time curve: dyes incubated with H2O2, recorded over 5 h at 20 min intervals.
Experimental: Next, the change in bulk fluorescence emission was assessed upon addition of H2O2 at a concentration realistic for cellular oxidative stress (100 µM) [31]. […] As the oxidation reaction is predominantly irreversible, these sensors record the total ROS exposure to a system, rather than the equilibrium value.
Another data set deals with H2O2 and αSyn aggregates (Homo sapiens, UniProt P37840). Conditions: 100 µM H2O2 (60 min) and approx. 10 µM αSyn aggregates, dye 5 µM.
The target of data set [4] is T1, αSyn aggregates (Homo sapiens, UniProt P37840). The experiment in a line: Limit of detection of oxidized probes by SAVE imaging. Conditions: first dye concentration deviating from mean background by 3 s.d.
Experimental: To quantify this process, we determined the number of detectable aggregates, before and after addition of H2O2 and assumed constant surface coverage. […] The limit of detection (LOD) of oxidized BE (BE-Ox) and mBE (mBE-Ox) probes to αSyn aggregates was determined using SAVE imaging (electronic supplementary material, figure S8).
Glass cover-slides for SAVE fluorescence imaging were cleaned for 1 h using an argon plasma (PDC-002, Harrick Plasma) and the slide surface incubated with poly-L-lysine (PLK) for 30 min as previously described [13]. […] The working solution (50 µl) was added to the clean, PLK coated cover-slide and incubated for 2 min. The slide was then washed twice with PBS and imaged. H2O2 (100 µM) was then added directly to the cover-slide and the sample imaged again.
The target in data set [5] is T1, αSyn aggregates. The experiment in a line: SAVE (TIRF) single-aggregate fluorescence imaging, density of detected aggregates. On the set-up: made in house; host or cells: Escherichia coli. How it is done: Fluorescence imaging experiments were carried out with a bespoke inverted microscope (Nikon, Eclipse, TE2000-U) set-up optimized for TIRF measurements. […] Images were recorded at 100 ms exposure for 200 frames using automation through Micro-manager software.
Images were analysed with a bespoke ImageJ [41] macro. […] Pixels of intensity above background were determined with a fixed threshold and αSyn aggregate species in each field of view identified and counted. […] Five fields of view in the presence of H2O2 and five in the absence of H2O2 were analysed for each dye. Error bars represent the standard deviations of the species density between the five fields of view.

The target of data set [6] is T1, αSyn aggregates. Put plainly: Bulk fluorescence response of dyes to preformed αSyn aggregates. On the set-up: made in house; host or cells: Escherichia coli. Conditions: approx. 10 µM preformed αSyn aggregates, dye 5 µM, PBS pH 7.4.
Data set [7] deals with T1, αSyn aggregates. Put plainly: Surface plasmon resonance equilibrium affinity to immobilized αSyn aggregates. It counts as binding. Conditions: SPR, 25°C, before incubation with H2O2. On the set-up: made in house; host or cells: Escherichia coli.
For data set [8] the following is noted: cited from earlier work.
The mark [9] stands for this setting: 30 µM in PBS pH 7.4, 60 minutes with 100 μM H2O2, UV 254 nm.
The mark [10] stands for this setting: 30 µM in PBS pH 7.4, time point 0 minutes, no H2O2, UV 254 nm.
Where [11] appears, read: 30 µM in PBS pH 7.4, time point 60 minutes, no H2O2, UV 254 nm.
Where [12] appears, read: after addition of 100 µM H2O2 (post-oxidation).
The mark [13] stands for this setting: before addition of H2O2 (pre-oxidized).

Turning to `COc1ccc2nc(-c3ccc(B4OC(C)(C)C(C)(C)O4)cc3)sc2c1` [BE01, 6-methoxy-2-(4-(4,4,5,5-tetramethyl-1,3,2-dioxaborolan-2-yl)phenyl)benzo[d]thiazole], in data set [1], the “Stokes shift (λem − λabs)” value was 86 nm, the “brightness (ε × ΦFl)” value came to 384 M⁻¹ cm⁻¹, the “maximum absorption wavelength (λabs)” value worked out at 330 nm and the “maximum emission wavelength (λem)” value amounted to 416 nm. Moreover, in [1], the “molar extinction coefficient ε” value worked out at 6400 M⁻¹ cm⁻¹ and the “fluorescence quantum yield ΦFl” value was 0.06. For the same molecule, the “Oxidized (phenol derivative) Rel. Area” value in data set [2] (setting [9]) was found to be 100%. Further, in data set [2] (setting [10]), the “Boronate ester Rel. Area” value is given as 35% and the “Hydrolyzed (boronic acid derivative) Rel. Area” value (shortened to “Hydrolyzed”) stood at 65%. Also, in [2] (setting [11]), the “Boronate ester Rel. Area” value is given as 53% and the “Hydrolyzed” value came to 47%. The “dye molecules converted into the phenol” value in data set [2] amounted to 100%. Further, the H2O2 concentration detected result in data set [3] (5 µM dye, 5 h incubation with 0-100 µM H2O2) was “greater than 1 µM”. Further, in data set [3], the “increase in bulk fluorescence upon addition of H2O2” value (“increase … of H2O2” below) amounted to 2.0 fold and the “gradient of fluorescence intensity versus time curve” value was determined as 0.112 ± 0.002 min⁻¹.

In the case of `COc1ccc2nc(-c3ccc(B4OCC(C)(C)CO4)cc3)sc2c1` [BE02, 2-(4-(5,5-dimethyl-1,3,2-dioxaborinan-2-yl)phenyl)-6-methoxybenzo[d]thiazole], in [1], the “Stokes shift (λem − λabs)” value amounted to 82 nm, the “brightness (ε × ΦFl)” value is 168 M⁻¹ cm⁻¹, the “maximum absorption wavelength (λabs)” value was 330 nm and the “maximum emission wavelength (λem)” value came out at 412 nm. In data set [1], the “molar extinction coefficient ε” value came out at 4200 M⁻¹ cm⁻¹ and the “fluorescence quantum yield ΦFl” value came to 0.04. Moreover, in [2] (setting [9]), the “Hydrolyzed” value is given as 10% and the “Oxidized (phenol derivative) Rel. Area” value is on record as 90%. Further, the “Hydrolyzed” value in data set [2] (setting [10]) is listed as 100%. Further, in data set [2] (setting [11]), the “Hydrolyzed” value turned out to be 100%. Besides, the “dye molecules converted into the phenol” value in [2] was determined as 90%. For the same molecule, the “gradient of fluorescence intensity versus time curve” value in [3] turned out to be 0.017 min⁻¹.

As to `Cc1ccc2c(c1)sc(-c1ccc(N(C)C)cc1)[n+]2C` [ThT, thioflavin t, reference compound], in data set [1], the “brightness (ε × ΦFl)” value amounted to 15 M⁻¹ cm⁻¹, the “maximum absorption wavelength (λabs)” value is listed as 412 nm, the “maximum emission wavelength (λem)” value came out at 486 nm and the “molar extinction coefficient ε” value is reported as 37 500 M^−1 cm^−1. Also, the “fluorescence quantum yield ΦFl” value in [1] is on record as 0.00. Besides, the “'compounded' increase in fluorescence with H2O2 and αSyn aggregates together” value (from here on “'compounded' increase in fluorescence”) at H2O2 and αSyn aggregates is reported as “no change in fluorescence”. Also, the “limit of detection (LOD) to αSyn aggregates” value on αSyn aggregates [4] is given as 2.40 ± 0.64 µM. In addition, the “increase … of H2O2” value in data set [3] is reported as “no change”. In addition, at αSyn aggregates [5] (setting [12]), the “density of single αSyn aggregate species detected” value (“density” below) is on record as 0.026 ± 002 aggregates/µm^2. The “density” value on αSyn aggregates [5] (setting [13]) amounted to 0.025 ± 0.004 aggregates/µm^2.

What is called Kd is the free concentration of one partner at which half of the binding sites on the other are occupied at equilibrium, for simple one-to-one binding. With `COc1ccc2c(c1)sc(-c1ccc(B3OC(C)(C)C(C)(C)O3)cc1)[n+]2C.F[B-](F)(F)F` [mBE01, 6-Methoxy-3-methyl-2-(4-(4,4,5,5-tetramethyl-1,3,2-dioxaborolan-2-yl)phenyl)benzo[d]thiazol-3-ium tetrafluoroborate], in [1], the “Stokes shift (λem − λabs)” value is 87 nm, the “brightness (ε × ΦFl)” value was 168 M⁻¹ cm⁻¹, the “maximum absorption wavelength (λabs)” value was 330 nm and the “maximum emission wavelength (λem)” value came out at 417 nm. Further, in [1], the “molar extinction coefficient ε” value is 16 800 M^−1 cm^−1 and the “fluorescence quantum yield ΦFl” value stood at 0.01. In data set [2] (setting [9]), the “Hydrolyzed” value worked out at 27%; the “Oxidized (phenol derivative) Rel. Area” value came out at 64%; the “Oxidized, de-methylated Rel. Area” value is recorded as 9.47%. In addition, the “Hydrolyzed” value in data set [2] (setting [10]) is 100%. Besides, the “Hydrolyzed” value in [2] (setting [11]) was found to be 100%. Also, the “dye molecules converted into the phenol” value in [2] was 73%. The “increase in fluorescence intensity upon addition of αSyn aggregates” value on αSyn aggregates [6] is recorded as 7.1 fold. Besides, on H2O2 and αSyn aggregates, the “'compounded' increase in fluorescence” value is on record as “no additional change in fluorescence”. The molecule further yielded a Kd at αSyn aggregates [7] of 35.2 ± 5.7 µM. In [3], the “increase … of H2O2” value was found to be 16.0 fold and the “gradient of fluorescence intensity versus time curve” value came to 0.011 min⁻¹. Further, the “density” value on αSyn aggregates [5] (setting [12]) is on record as 0.0051 ± 0.0004 aggregates/µm^2. At αSyn aggregates [5] (setting [13]), the “density” value is reported as 0.0040 ± 0.0004 aggregates/µm^2.

On to `COc1ccc2c(c1)sc(-c1ccc(B3OCC(C)(C)CO3)cc1)[n+]2C.F[B-](F)(F)F` [mBE02, 2-(4-(5,5-Dimethyl-1,3,2-dioxaborinan-2-yl)phenyl)-6-methoxy-3-methylbenzo[d]thiazol-3-ium tetrafluoroborate], for which, in data set [1], the “Stokes shift (λem − λabs)” value is on record as 87 nm, the “brightness (ε × ΦFl)” value came out at 148 M⁻¹ cm⁻¹, the “maximum absorption wavelength (λabs)” value came to 330 nm and the “maximum emission wavelength (λem)” value was 417 nm. Also, in [1], the “molar extinction coefficient ε” value was 14 800 M^−1 cm^−1 and the “fluorescence quantum yield ΦFl” value worked out at 0.01. In addition, in data set [2] (setting [9]), the “Hydrolyzed” value is given as 12%; the “Oxidized (phenol derivative) Rel. Area” value is given as 70%; the “Oxidized, de-methylated Rel. Area” value is 18.63%. The “Hydrolyzed” value in data set [2] (setting [10]) was 100%. Moreover, the “Hydrolyzed” value in data set [2] (setting [11]) is listed as 100%. In addition, in data set [2], the “dye molecules converted into the phenol” value is reported as 88%. Moreover, the “increase in fluorescence intensity upon addition of αSyn aggregates” value on αSyn aggregates [6] is given as 3.8 fold. The “'compounded' increase in fluorescence” value at H2O2 and αSyn aggregates is reported as “no additional change in fluorescence”. The molecule also returned a Kd on αSyn aggregates [7] of 33.5 ± 3.9 µM. Besides, in [3], the “increase … of H2O2” value is 3.6 fold and the “gradient of fluorescence intensity versus time curve” value stood at 0.015 min⁻¹. The “density” value on αSyn aggregates [5] (setting [12]) came to 0.0060 ± 0.0005 aggregates/µm^2. Moreover, the “density” value at αSyn aggregates [5] (setting [13]) is 0.006 ± 0.001 aggregates/µm^2.

As for `C=C[C@H]1C[N@@]2CC[C@H]1C[C@H]2[C@H](O)c1ccnc2ccc(OC)cc12` [quinine sulfate], the “ΦFl of reference standard” value in data set [8] (in 0.1 M H2SO4) is reported as 0.5.

Turning to `O=C(O)c1ccccc1C1=c2cc3c4c(c2Oc2c1cc1c5c2CCCN5CCC1)CCC[N+]=4CCC3.[Cl-]` [rhodamine 101], the “ΦFl of reference standard” value in data set [8] (in ethanol) was 1.
